Measured values taken from patent publication US7005416B2, “Dalfopristine/quinupristine combinations with cefpirome” (Jones Pharma Incorporated, priority 2000, dated 2006).
In brackets after ≈: the same amount, converted by molar mass.

Experiments:
[1] = test system: MRSA strain AW7 (C-MLSB-resistant); assay: MIC determination on agar plates, MRSA strain AW7; type: cell-based; conditions: Staphylococcus aureus, read-out: minimum inhibitory concentration (MIC)
Experimental: (§1) The microorganisms tested were two clinical isolates of C-MLSB-resistant MRSA: strains AW7 and P8, previously characterized in vitro, and in vivo in rat experimental endocarditis.
(§2) The study in vitro and the determination of the MICs (minimum inhibitory concentrations) was carried out using cultures on agar plates (Antimicrob. Agents Chemother., 39, 1419–1424 (1995), the disclosure of which is incorporated by reference herein).

[2] = test system: MRSA strain P8 (C-MLSB-resistant); assay: MIC determination on agar plates, MRSA strain P8; type: cell-based; conditions: Staphylococcus aureus, read-out: minimum inhibitory concentration (MIC)
Experimental: as §1, §2

MRSA strain AW7 = assay: Growth of bacterial populations on cefpirome-containing plates, with or without subinhibitory dalfopristine/quinupristine, strain AW7; type: cell-based, Staphylococcus aureus
Experimental: as §2
(§3) Bacterial populations of the MRSA strains Ab 7 and P8 can grow on plates containing up to 60 mg/l of cefpirome.

MRSA strain P8 = assay: Growth of bacterial populations on cefpirome-containing plates, with or without subinhibitory dalfopristine/quinupristine, strain P8; type: cell-based, Staphylococcus aureus
Experimental: as §2, §3

in vivo = assay: in vivo; set-up: species or system rats; conditions: Wistar, rat, iv
Experimental: The treatment was started 12 hours after the bacterial infection, and was continued for 5 days. The antibiotics were administered by means of a permanent venous catheter with a programmable pump (Pump 44; Harvard Apparatus Inc.) according to the method described in Antimicrobial Agents Chemother., 39, 1419–1424 (1995), the disclosure of which is incorporated by reference herein. The treatments simulated kinetics in humans, which were produced by intravenous administration of 7 mg/kg of quinupristine/dalfopristine every 12 hours, or by intravenous administration of 2 g of cefpirome every 12 hours.
Prior to the treatment experiments, the setting up of the simulation of the human kinetics of the quinupristine/dalfopristine combination with cefpirome in rats was performed on animals that were catheterized, but not infected. In these preliminary experiments, each point of the pharmacokinetics curve is the mean (±standard deviation) of the concentrations measured in 6 different rats. The concentrations of product in the serum were measured in a bioassay (using Micrococcus luteus for quinupristine/dalfopristine, and Bacillus subtilis ATCC 6633 for cefpirome).
These values are in accordance with the therapeutic levels observed in humans for these active principles. […]

[3] = test system: C-MLSB-resistant MRSA strains; assay: Rat experimental endocarditis resulting from C-MLSB-resistant MRSA strains (overall statement); type: in vivo, rats; conditions: monotherapy
Experimental: Synercid® (quinupristine/dalfopristine) and cefpirome were tested separately in rats, on experimental endocarditis resulting from C-MLSB-resistant MRSA strains.
(§4) For the experimental endocarditis study, Wistar female rats weighing 200 g with aortic vegetation (produced according to the method described by Heraief et al., Infect Immunol., 37,127–31 (1982), the disclosure of which is incorporated by reference herein) were infected with an inoculum of 10^5 CFU/ml of the organism to be tested, which corresponds to 10 times the minimum inoculum to produce endocarditis in at least 90% of the untreated controls (where CFU refers to colony forming units).
(§5) The treatment was started 12 hours after the bacterial infection, and was continued for 5 days. […]
(§6) The control rats were sacrificed at the start of the treatment and the treated rats were sacrificed 24 hours after the final antibiotic administration. The bacterial density in the vegetations was determined after dissecting the vegetations under sterile conditions, weighing, homogenizing in 1 ml of saline solution, and then diluting the solution (series of dilutions) before placing it onto plates for counting of the colonies. The number of colonies growing on the plates was determined after 48 hours of incubation at 35° C. The bacterial densities in the vegetations were expressed as log10 CFU/g of tissue. […]

MRSA AW7 = assay: Rat experimental aortic endocarditis, MRSA AW7; type: in vivo, Wistar female rats
Text: as §4, §5, §6

MRSA P8 = assay: Rat experimental aortic endocarditis, MRSA P8; type: in vivo, Wistar female rats; conditions: MRSA P8, 5 days treatment, FIG. 2; monotherapy P>0.05, combination P<0.05
Text: as §4, §5, §6

- MIC [1]: 4 µg/mL (≈ 7.77 µM)
- MIC [2]: 2 µg/mL (≈ 3.89 µM)
- concentration at 5 min (in vivo): 161 ± 19.7 µg/mL
- concentration at 12 h (in vivo): 2.2 ± 1.4 µg/mL
Structure (SMILES): CO/N=C(\C(=O)N[C@@H]1C(=O)N2C(C(=O)[O-])=C(C[n+]3cccc4c3CCC4)CS[C@H]12)c1csc(N)n1 [cefpirome]
- cefpirome concentration in plates up to which bacterial populations can grow (MRSA strain AW7; MRSA strain AW7 (printed Ab 7), cefpirome alone): up to 60 mg/l
- cefpirome concentration in plates at which the strain did not grow (MRSA strain AW7; MRSA strain AW7, plates with subinhibitory (¼ MIC) dalfopristine/quinupristine combination added): ≥ 5 mg/L
- cefpirome concentration in plates up to which bacterial populations can grow (MRSA strain P8; MRSA strain P8, cefpirome alone): up to 60 mg/l
- cefpirome concentration in plates at which the strain did not grow (MRSA strain P8; MRSA strain P8, plates with subinhibitory (¼ MIC) dalfopristine/quinupristine combination added): ≥ 15 mg/L
- effectiveness in vivo [3]: Neither Synercid® nor cefpirome showed any effectiveness in vivo in monotherapy
- effectiveness on aortic endocarditis (statistical significance) (MRSA AW7; MRSA AW7, 5 days treatment, FIG. 2, monotherapy P>0.05, combination P<0.05): neither quinupristine/dalfopristine, nor cefpirome, in monotherapy were significantly effective
- log10 CFU/g of vegetation (MRSA AW7; MRSA AW7, in 38% of the cases): >8.7 in 38% log10 CFU/g
- effectiveness on aortic endocarditis (statistical significance) (MRSA P8): neither quinupristine/dalfopristine, nor cefpirome, in monotherapy were significantly effective
